Test results taken from paper PMC5814047, “Peptidic inhibitors of insulin-degrading enzyme with potential for dermatological applications discovered via phage display” (PLoS ONE, 2018).
“And” between values parts separate entries of the source, which are not always exact repeats. Equal entries are not always repeated. Bridge positions count the residues as written; N and C are the ends. Peptide text beside a SMILES is read from it.

System: COL1A1 mRNA in primary murine skin fibroblasts
Experiment: COL1A1 mRNA quantification by RT-PCR
Type: cell-based
Description: Insulin promotes wound healing and overall skin health by affecting a number of processes, including cell proliferation, cell migration, and the production and secretion of ECM components, particularly type I collagen. We therefore assessed the ability of P12-3A to influence these processes in cultured skin fibroblasts and keratinocytes. To that end, primary mouse skin fibroblasts were grown for 4 d in multiple concentrations of insulin in the presence or absence of P12-3A, and insulin concentration over time was monitored by ELISA. […] Finally, the effects of P12-3A on collagen production in were assessed at both the transcriptional and the posttranslational level in confluent monolayers of fibroblasts. After 4 d of treatment with P12-3A (100 μM), mRNA levels for the major form of collagen, alpha-1 type I collagen (COL1A1), were quantified by RT-PCR and found to be increased to ~2.6 times the levels of untreated cells (Fig 4C). To assess overall levels of collagen production and secretion, we quantified levels of hydroxyproline, a modified amino acid present almost exclusively in collagen proteins. […] Western blotting also confirmed that mature, cell-associated collagen levels were increased in the presence of P12-3A (Fig 4E).
Fig 4 Effects of P12-3A on cultured skin cells. A, Insulin concentrations as a function of time in logarithmically growing primary murine skin fibroblasts in the absence or presence of P12-3A (100 μM). […] Data are mean ± SEM of 4 independent replications. *P<0.05, **P<0.01. B, Proliferation of cells in the absence or presence of P12-3A (100 μM). Data are mean ± SEM of 6 independent replications. […] C,D,E, P12-3A (100 μM) potentiates insulin-induced collagen production in skin fibroblasts. Collagen production was assessed by COL1A1 mRNA levels (C), levels of hydroxyproline secreted into the medium (D), and cell-associated mature alpha-1 type I collagen levels detected by Western blotting (E). Data are mean ± SD of 4 independent replications. *P<0.05, **P<0.01. […] Migration of HaCaT cells 48 h after induction of a scratch wound in the presence of the indicated quantities of insulin and/or P12-3A (100 μM). Data are mean ± SEM of 6 independent replications. *P<0.05, **P<0.01.
RNA was extracted from freshly lysed cells, reverse transcribed and amplified using the Ambion® Fast SYBR® Green Cells-to-CT™ Kit according to manufacturer’s recommendations (Thermo Fisher Scientific, Waltham, MA, USA). The quantitative real-time PCR reaction was conducted using a 7500 real-time PCR system and analyzed using System SDS software v2.0.5 (Applied Biosystems). Murine COL1A1 mRNA was detected using the following primers (forward: 5’-[…] and reverse: 5’ […]). Fold change differences between samples were determined using the comparative Ct (ΔΔCt) method, normalized to internal standards detected with the SYBR® Green Cells-to-CT™ Control Kit according to manufacturer’s recommendations (Thermo Fisher Scientific, Waltham, MA, USA) calculated by 2^-ΔΔCt.

[1] = P12-3A 100 uM, individual replicates

## CC(C)C[C@H](NC(=O)[C@H](CO)NC(=O)[C@@H](N)CCC(N)=O)C(=O)N1CCC[C@H]1C(=O)N[C@@H](Cc1c[nH]c2ccccc12)C(=O)N[C@H]1CSSC[C@@H](C(=O)N[C@H](C(=O)N[C@H](C(N)=O)[C@@H](C)O)C(C)C)NC(=O)[C@H](Cc2c[nH]cn2)NC(=O)[C@@H]2CCCN2C(=O)[C@H](Cc2ccc(O)cc2)NC1=O [P12-3A] (H-QSLPWCYPHCVT-NH2; disulfide 6-10 (inferred))
100 μM P12-3A, 4 d, confluent monolayers
  COL1A1 mRNA levels: ~ 2.6 times the levels of untreated cells
P12-3A 100 uM, N 4
  2^(-DCt), COL1A1 mRNA, Mean: 0.490
  DCt (COL1A1 mRNA vs internal standard ß-actin), Mean: 1.082
[1]
  2^(-DCt), COL1A1 mRNA: 0.454 and 0.570 and 0.306 and 0.629
  DCt (COL1A1 mRNA vs internal standard ß-actin): 1.14 and 0.81 and 1.71 and 0.67
P12-3A 100 uM, normalized to control mean (1.000), N 4
  COL1A1 mRNA, normalized, Mean: 2.644
P12-3A 100 uM, normalized to control mean (1.000), individual replicates
  COL1A1 mRNA, normalized: 2.451 and 3.081 and 1.651 and 3.395
P12-3A 100 uM, raw Ct, N 4
  Ct, COL1A1 mRNA, Mean: 21.783
P12-3A 100 uM, raw Ct, individual replicates
  Ct, COL1A1 mRNA: 22.07 and 21.23 and 21.93 and 21.9
